Assays:
[1] = tested on: CD1 mouse islets; assay: GSIS and insulin content of CMPF-treated islets with OAT inhibitors; type: cell-based
Source text: A) Microarray analysis of human islets showing expression of OAT transporters and beta-cell genes (n=3). Validation of OAT expression in human islets by (b) RT-PCR, (c) western blot, and (d) immunofluorescent staining with insulin (n=3-5). Human kidney samples are from the HK2 human proximal tubule cell line. GSIS from murine islets co-treated with OAT inhibitors (e) Probenecid, (f) benzylpenicillin (PCG) and (g) p-aminohippurate (PAH) (n=4/group). h) Total insulin content from murine islets co-treated with CMPF and PCG (n=4). Values mean+/−SEM. Student's t-test (a, e-h). *P<0.05, **P<0.01, ***P<0.001.
To determine if the OAT transporters are responsible for CMPF transport into beta cells, CD1 mouse islets were pre-treated 1 mM Probenecid prior to the addition of CMPF to ensure blockage of the channels and complete exclusion of CMPF from the cells. A dosage of 1 mM Probenecid was selected based on previous evidence that this concentration was sufficient to inhibit anion transport from beta cells without any observed effect on glucose-stimulated insulin secretion (Arkhammar et al. 1989). Islets were pre-treated with 1 mM Probenecid for 3 hours prior to the addition of 200 uM CMPF. After 24 hours cells were assessed by GSIS. Treatment with 200 uM CMPF alone produced a significant decrease in GSIS under both high glucose and KCl-stimulated conditions, consistent with previous findings, while treatment with 1 mM Probenecid for 27 hours had no effect on GSIS compared to vehicle controls. […] Therefore, probenecid inhibits the effect of CMPF. Similar results were obtained using the OAT3-specific inhibitor PCG. Islets were again pre-treated for 3 hours with 300 uM PCG prior to 24-hour 200 uM CMPF treatment (FIG. 14B).
To determine if OATs are responsible for CMPF transport into beta-cells, we utilized inhibitors of OAT function. Probenecid is a non-specific OAT-blocker (Miyamoto et al., 2012). Treatment of islets with 1 mM probenecid for 24 hrs rescued insulin secretion from CMPF-treated islets to control levels (FIG. 19e). To determine which OAT is primarily responsible for CMPF transport into beta-cells, we treated islets with 300 μM of benzylpenicillin (PCG), an OAT3-specific inhibitor, or 50 μM of paminohippurate (PAH), an OAT1-specific inhibitor (Deguchi et al., 2005). Consistent with previous reports that OAT3 is the dominant CMPF transporter (Deguchi et al., 2005), PCG was able to rescue insulin secretion and insulin content from CMPF-treated islets to control levels (FIG. 19f,h). However, treatment with PAH had no effect on secretion (FIG. 19g). Therefore, CMPF is transported into the beta-cell through OAT3, and blockage of this transporter prevents CMPF from impairing GSIS and insulin biosynthesis.

[2] = tested on: mice; assay: Probenecid IP twice daily for 3 days in mice; type: in vivo
Method: Mice were injected IP with 150 mg/kg probenecid twice daily for 3 days as previously described (Baudoux et al., 2012).

[3] = tested on: OAT transporter; settings: 5 mg/kg CMPF co-administered with 150 mg/kg probenecid; cited from earlier work
[4] = tested on: primary murine islets; assay: Glucose- and KCl-stimulated insulin secretion in primary murine islets; type: cell-based; settings: co-treatment with 500 μM NAC, 24 hr
Method: LG=2.8 mM glucose, HG=16.7 mM glucose, KCl=16.7 mM glucose+30 mM KCl. *p<0.05.
Since beta cell failure is a major underlying cause of both GDM and T2D, the effect of increased CMPF on beta cell function was investigated both in vitro and in vivo. Using physiological concentrations of CMPF (20 uM and 200 uM, as observed in our NGT-pregnant and GDM-pregnant samples respectively (FIG. 2)), as well as a vehicle control (EtOH), its effect was studied on glucose-stimulated insulin secretion (GSIS) and insulin secretion in response to direct depolarization using the secretagogue KCl in an immortalized murine beta cell line (MIN6), as well as primary isolated human and murine islets (FIG. 3A). […] Therefore, high physiologically relevant levels of CMPF impair GSIS.

[5] = tested on: murine islets; assay: Total insulin content in murine islets; type: cell-based; settings: co-treatment with 500 μM NAC, 24 hr
Method: Murine islets were treated for 24 hrs with vehicle control (0 CMPF), 20 uM (20 CMPF), or 200 uM (200 CMPF) CMPF, and assessed for total insulin content and mRNA expression. […] Decreased expression of insulin processing enzymes PCSK1, 2 and CpE (F), (G), (H) indicate that CMPF may also impair post-translational insulin processing. Finally, CMPF causes decreased expression of the beta cell glucose transporter GLUT2, and GCK, the rate-limiting enzyme critical for glucose metabolism (I) and (J), perhaps impairing glucose sensing and metabolism. In all cases n=4, *P<0.05.
In the absence of apoptosis and necrosis, CMPF must be impairing GSIS by causing beta cell dysfunction. First, the effect of CMPF treatment on insulin biosynthesis was investigated to determine if insulin is available to be released upon stimulation. MIN6, murine and human islets were treated with vehicle control, 20 uM and 200 uM CMPF for 4 hrs (MIN6) or 24 hrs (islets), and total insulin content measured. […] Lower total insulin content may be due to either defective insulin processing from proinsulin to mature insulin, or insufficient insulin transcription. To determine the mechanism through which CMPF is reducing total insulin content, quantitative PCR (qPCR) was performed on RNA that was isolated from murine islets treated with either vehicle control or 200 uM CMPF for 24 hrs.

[6] = tested on: mouse islets; assay: ROS accumulation in isolated islets (mitoSOX red, CM-H2-DCFDA); type: cell-based; settings: co-treatment with 500 μM NAC, 24 hr
Method: A) Proinsulin in the media of 24 hr treated islets (n=4/group). B) Mitochondrial membrane potential (MMP) following acute addition of vehicle control or 200 μM of CMPF (N=3/group). C) ROS levels in 4- and 24-hour treated mouse islets with representative images (N=10-15 islets/mouse from 4 mice/group). D) Expression of antioxidant genes Cat and (e) Ucp2 (n=4/group). F) ROS accumulation in 24 hr-treated islets treated with 500 μM NAC (n=10 islets/mouse from 4 mice/group). G) GSIS and (h) total insulin content from 24 hr-treated islets co-treated with 500 μM NAC (n=4/group). Western blots showing (i) Ser9 phosphorylation of GSK3β, (j) Ser473 phosphorylation of AKT (n=3/group). K) Immunofluorescent staining showing nuclear translocation of FOXO1 and (l) PDX1 with CMPF and NAC treatment (n=3-6). Quantification of nuclear percentage of (m) FOXO1 and (n) PDX1 based on immunofluorescent staining with CMPF and NAC treatment. O) Western blots showing protein abundance of PDX1 and FOXO1. Values are mean+/−SEM. Student's t-test (a, c-j, m-o), one-way ANOVA (b). *P<0.05, **P<0.01, ***P<0.001.
The level of superoxide and H2O2 were determined using mitoSOX red and 2′,7′-dichlorodihydro fluorescein diacetate (CM-H2-DCFDA) respectively (Molecular Probes, Invitrogen, Canada) in isolated islets treated with either vehicle control or 200 μM CMPF for 4 or 24 hours, as previously described (Lee et al. 2009). […]

[7] = tested on: dispersed CD1 mouse islet cells; assay: Immunofluorescent staining of FOXO1 and PDX1 localization; type: cell-based; settings: treatment with NAC
Method: The cellular localization of FOXO1 and PDX1 were determined in dispersed CD1 mouse islet cells using immunofluorescence. The presence of the organic anion transporters (OATs) were determined in dispersed human islet cells also using immunofluorescence. Staining was performed as previously described (Diao et al., 2008). Images were acquired using a confocal microscope (Quorum Wave FX Spinning Disc; Perkin Elmer, Waltham M L, USA) and Volocity software (Perkin Elmer).
To determine the mechanism through which CMPF decreases insulin biosynthesis we examined its effect on these key regulators. Under normal conditions, AKT and GSK3β have reciprocal activities. Active pAKT phosphorylates and inactivates GSK3β, preventing phosphorylation of downstream targets (Humphrey et al., 2010). […] FOXO1 is normally sequestered in the cytosol due to phosphorylation by AKT (Kitamura et al., 2005). […] Altered activity of these transcription factors is further confirmed by decreased mRNA levels of key target genes including Inst, transcription factors Pdx1 and Mafa, proinsulin processing enzymes CpE, Pc1 and Pc2, and the glucose transporter Glut2 (Boucher et al., 2006; Kaneto et al. 2008) (FIG. 18a).

[8] = tested on: MIN6 cells; assay: Annexin V and propidium iodide staining for apoptosis and necrosis; type: cell-based, murine; settings: 5 mM, 3 hrs
Method: A) MIN6 cells were treated for 4 hrs with 0 uM (EtOH vehicle control), 20 uM or 200 uM CMPF prior to being loaded with Annexin V and propidium iodide fluorescent dyes, and counterstained with Hoechst dye. […] B) Primary CD1 islets were dispersed and treated with vehicle control (0 CMPF, black), 20 uM CMPF (grey), or 200 uM CMPF (white) for 48 hours, then stained with Annexin V, Propidium Iodide and Hoechst dye. Quantification of double positive staining was assessed by an Arrayscan VTI HCS reader.
Next the mechanism underlying the observed impairment in GSIS following treatment with CMPF was investigated. To determine whether CMPF was inhibiting GSIS by inducing beta cell apoptosis, Annexin V and Propidium Iodide staining was performed in MIN6 cells treated with vehicle (EtOH), 20 uM or 200 uM CMPF for 4 hrs to look for apoptosis and necrosis respectively. […] MIN6 cells treated with 5 mM H2O2 for 3 hrs were used as a positive control (FIG. 4).

[9] = biological target: T1, OAT3 (Rattus norvegicus, UniProt Q9R1U7); settings: concentrations of PCG that selectively inhibit OAT3; cited from earlier work
T1 construct: host or cells: kidney (in vivo, per the cited study)
T1 sequence (Q9R1U7 1-536): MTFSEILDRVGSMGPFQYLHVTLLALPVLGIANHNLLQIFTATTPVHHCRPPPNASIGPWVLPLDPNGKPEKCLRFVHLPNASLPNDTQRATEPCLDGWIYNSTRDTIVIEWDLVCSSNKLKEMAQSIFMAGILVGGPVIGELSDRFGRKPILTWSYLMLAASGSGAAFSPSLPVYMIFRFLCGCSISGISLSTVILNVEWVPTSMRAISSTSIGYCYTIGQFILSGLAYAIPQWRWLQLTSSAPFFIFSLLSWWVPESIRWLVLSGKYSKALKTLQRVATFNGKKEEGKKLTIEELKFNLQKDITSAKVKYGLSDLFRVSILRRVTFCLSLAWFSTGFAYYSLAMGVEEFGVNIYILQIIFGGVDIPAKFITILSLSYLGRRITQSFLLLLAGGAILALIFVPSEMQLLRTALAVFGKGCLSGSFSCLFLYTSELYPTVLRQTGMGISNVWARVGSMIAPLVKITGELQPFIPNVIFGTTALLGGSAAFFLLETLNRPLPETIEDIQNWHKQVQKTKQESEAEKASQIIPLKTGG

[10] = 150 mg/kg IP twice daily for 3 days

CCCN(CCC)S(=O)(=O)c1ccc(C(=O)O)cc1 [probenecid]
effect of 200 uM CMPF on high-glucose and KCl-stimulated insulin secretion ([1]; 1 mM, 3 hour pre-treatment, then 24 hours with CMPF): completely abolished the effect of CMPF
GSIS, inhibitor alone vs vehicle ([1]; 1 mM, 27 hours): no effect
body weight [2, 10]: No differences
fasting blood glucose [2, 10]: No differences
plasma uric acid concentrations ([2]; 150 mg/kg twice daily): significantly reduced
glucose tolerance (2 g/kg OGTT) ([2]; on the 4th day): no significant difference
plasma clearance of CMPF [3]: significantly reduced

CC(=O)N[C@@H](CS)C(=O)O [NAC, N-Acetyl-Cysteine, reference compound]
insulin secretion (GSIS) in CMPF-treated islets [4]: rescued
insulin content in CMPF-treated islets [5]: rescued
CMPF-induced increase in ROS production [6]: inhibited
CMPF-induced translocation of FOXO1 [7]: prevented
CMPF-induced translocation of PDX1 [7]: prevented

OO [H2O2, reference compound]
Annexin V and propidium iodide staining (positive control) [8]: only observed in the positive control

Nc1ccc(C(=O)NCC(=O)O)cc1 [PAH, p-aminohippurate]
insulin secretion of CMPF-treated islets ([1]; 50 μM): no effect

CC1(C)S[C@@H]2[C@H](NC(=O)Cc3ccccc3)C(=O)N2[C@H]1C(=O)O [PCG, benzylpenicillin]
insulin secretion, inhibitor alone ([1]; 300 uM): no significant effect
effect of 200 uM CMPF on insulin secretion under high glucose ([1]; 300 uM, 3 hour pre-treatment, then 24 hours with CMPF): inhibited the effect of CMPF
insulin content of CMPF-treated islets ([1]; 300 μM, to control levels): rescue
CMPF secretion prevented [9]: 65-75%

— US9726659B2, “CMPF as a biomarker for diabetes and associated methods” (The Governing Council of the University of Toronto, priority 2012, dated 2017)
